Assay results as given in patent publication US6737383B1, “Herbicidal oxadiazolidines” (priority 1999, dated 2004).

What was measured:
[1] = tested on: pigweed; assay: Test B pre/postemergence pigweed; format: in vivo, Amaranthus retroflexus
Method in brief: (§1)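 Response is a visual 0-to-10 score relative to untreated plants, where 0 means no effect and 10 means complete control, taken twelve to sixteen days after application. Treatments went onto soil at planting and onto foliage of 1- to 4-leaf plants, using a surfactant-containing non-phytotoxic solvent.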

[2] = tested on: soybean; assay: Test B pre/postemergence soybean; format: in vivo, Glycine max
Method in brief: as §1

[3] = tested on: purple nutsedge; assay: Test B pre/postemergence purple nutsedge; format: in vivo, Cyperus rotundus
Method in brief: as §1

[4] = tested on: duck salad; assay: Test B flood test duck salad; format: in vivo, Heteranthera limosa; settings: Pre-emergence
Method in brief: (§2)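 Each value is a visual injury score relative to controls, with 10 meaning complete control and 0 no effect. Evaluation took place twelve to sixteen days after the 2-leaf-stage plants were treated and kept in the greenhouse.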

[5] = tested on: smallflower flatsedge; assay: Test B flood test smallflower flatsedge; format: in vivo, Cyperus difformis; settings: Pre-emergence
Method in brief: as §2

[6] = tested on: corn; assay: Test B pre/postemergence corn; format: in vivo, Zea mays
Method in brief: as §1

[7] = tested on: rice; assay: Test B flood test rice; format: in vivo, Oryza sativa; settings: Pre-emergence
Method in brief: as §2

[8] = tested on: cocklebur; assay: Test B pre/postemergence cocklebur; format: in vivo, Xanthium strumarium
Method in brief: as §1

[9] = tested on: bedstraw; assay: Test B pre/postemergence bedstraw; format: in vivo, Galium aparine
Method in brief: as §1

[10] = tested on: wild oat; assay: Test B pre/postemergence wild oat; format: in vivo, Avena fatua
Method in brief: as §1

[11] = tested on: wheat; assay: Test B pre/postemergence wheat; format: in vivo, Triticum aestivum
Method in brief: as §1

[12] = tested on: velvetleaf; assay: Test B pre/postemergence velvetleaf; format: in vivo, Abutilon theophrasti
Method in brief: as §1

[13] = tested on: surinam grass; assay: Test B pre/postemergence surinam grass; format: in vivo, Brachiaria decumbens
Method in brief: as §1

[14] = tested on: sugar beet; assay: Test B pre/postemergence sugar beet; format: in vivo, Beta vulgaris
Method in brief: as §1

[15] = tested on: giant foxtail; assay: Test B pre/postemergence giant foxtail; format: in vivo, Setaria faberii
Method in brief: as §1

[16] = tested on: rape; assay: Test B pre/postemergence rape; format: in vivo, Brassica napus
Method in brief: as §1

[17] = Preemergence, Rate 62 g/ha, scale of 0 to 10 where 0 is no effect and 10 is complete control
[18] = Preemergence, Rate 250 g/ha, scale of 0 to 10 where 0 is no effect and 10 is complete control
[19] = Preemergence, Rate 500 g/ha, scale of 0 to 10 where 0 is no effect and 10 is complete control
[20] = Rate 62 g/ha, Postemergence, scale 0 to 10, 0 no effect, 10 complete control
[21] = Rate 125 g/ha, Postemergence, scale of 0 to 10 where 0 is no effect and 10 is complete control
[22] = Rate 250 g/ha, Postemergence, scale of 0 to 10 where 0 is no effect and 10 is complete control
[23] = Rate 1000 g/ha, scale 0 to 10 (0 no effect, 10 complete control)
[24] = Rate 125 g/ha, flood test species, scale 0 to 10 where 0 is no effect and 10 is complete control
[25] = Rate 250 g/ha, flood-test species, scale 0 to 10, 0 is no effect, 10 is complete control
[26] = Rate 500 g/ha, flood test species, scale 0 to 10 (0 no effect, 10 complete control)
[27] = Rate 500 g/ha, Postemergence, scale 0 to 10, 0 no effect, 10 complete control

Cc1ccccc1-n1c(=O)on(C(=O)N(c2ccc3ccccc3c2)C(C)C)c1=O [Compound 306]
Redroot pigweed plant response rating [1, 17]: 0
Redroot pigweed plant response rating (0 to 10 scale) ([1]; Preemergence, Rate 125 g/ha): 0
Redroot pigweed plant response rating [1, 18]: 0
Redroot pigweed plant response rating [1, 19]: 0
Redroot pigweed plant response rating [1, 20]: 0
Redroot pigweed plant response rating [1, 21]: 0
Plant response rating, Redroot pigweed [1, 22]: 0
Soybean plant response rating [2, 17]: 0
Soybean plant response rating (0 to 10 scale) ([2]; Preemergence, Rate 125 g/ha): 0
Soybean plant response rating [2, 18]: 0
Soybean plant response rating [2, 19]: 0
Soybean plant response rating [2, 20]: 1
Soybean plant response rating [2, 21]: 2
Plant response rating, Soybean [2, 22]: 2
Nutsedge plant response rating [3, 17]: 0
Nutsedge plant response rating (0 to 10 scale) ([3]; Preemergence, Rate 125 g/ha): 0
Nutsedge plant response rating [3, 18]: 0
Nutsedge plant response rating [3, 19]: 0
Nutsedge plant response rating [3, 20]: 0
Nutsedge plant response rating [3, 21]: 0
Plant response rating, Nutsedge [3, 22]: 0
Ducksalad plant response rating [4, 23]: 0
Ducksalad plant response rating [4, 24]: 0
Ducksalad plant response rating [4, 25]: 0
Ducksalad plant response rating [4, 26]: 0
S. Flatsedge plant response rating [5, 23]: 0
S. Flatsedge plant response rating [5, 24]: 0
S. Flatsedge plant response rating [5, 25]: 0
S. Flatsedge plant response rating [5, 26]: 0
Corn plant response rating [6, 17]: 0
Corn plant response rating (0 to 10 scale) ([6]; Preemergence, Rate 125 g/ha): 0
Corn plant response rating [6, 18]: 0
Corn plant response rating [6, 19]: 0
Corn plant response rating [6, 20]: 0
Corn plant response rating [6, 21]: 0
Plant response rating, Corn [6, 22]: 0
Corn plant response rating [6, 27]: 0
Rice plant response rating [7, 23]: 0
Rice plant response rating [7, 24]: 0
Rice plant response rating [7, 25]: 0
Rice plant response rating [7, 26]: 0
Cocklebur plant response rating [8, 17]: 0
Cocklebur plant response rating (0 to 10 scale) ([8]; Preemergence, Rate 125 g/ha): 0
Cocklebur plant response rating [8, 18]: 0
Cocklebur plant response rating [8, 19]: 0
Cocklebur plant response rating [8, 20]: 0
Cocklebur plant response rating [8, 21]: 0
Plant response rating, Cocklebur [8, 22]: 0
Cocklebur plant response rating [8, 27]: 0
Bedstraw plant response rating [9, 17]: 0
Bedstraw plant response rating (0 to 10 scale) ([9]; Preemergence, Rate 125 g/ha): 0
Bedstraw plant response rating [9, 18]: 0
Bedstraw plant response rating [9, 19]: 0
Bedstraw plant response rating [9, 20]: 0
Bedstraw plant response rating [9, 21]: 0
Plant response rating, Bedstraw [9, 22]: 0
Bedstraw plant response rating [9, 27]: 0
Wild oats plant response rating [10, 17]: 0
Wild oats plant response rating (0 to 10 scale) ([10]; Preemergence, Rate 125 g/ha): 0
Wild oats plant response rating [10, 18]: 0
Wild oats plant response rating [10, 19]: 0
Wild oats plant response rating [10, 20]: 0
Wild oats plant response rating [10, 21]: 0
Plant response rating, Wild oats [10, 22]: 0
Wheat plant response rating [11, 17]: 0
Wheat plant response rating (0 to 10 scale) ([11]; Preemergence, Rate 125 g/ha): 0
Wheat plant response rating [11, 18]: 0
Wheat plant response rating [11, 19]: 0
Wheat plant response rating [11, 20]: 0
Wheat plant response rating [11, 21]: 0
Plant response rating, Wheat [11, 22]: 0
Velvetleaf plant response rating [12, 17]: 0
Velvetleaf plant response rating (0 to 10 scale) ([12]; Preemergence, Rate 125 g/ha): 0
Velvetleaf plant response rating [12, 18]: 0
Velvetleaf plant response rating [12, 19]: 0
Velvetleaf plant response rating [12, 20]: 0
Velvetleaf plant response rating [12, 21]: 0
Plant response rating, Velvetleaf [12, 22]: 0
B. signalgrass plant response rating [13, 17]: 0
B. signalgrass plant response rating (0 to 10 scale, 0 is no effect, 10 is complete control) ([13]; Preemergence, Rate 125 g/ha): 0
B. signalgrass plant response rating [13, 18]: 0
B. signalgrass plant response rating [13, 19]: 0
B. signalgrass plant response rating [13, 20]: 0
B. signalgrass plant response rating [13, 21]: 0
Plant response rating, B. signalgrass [13, 22]: 0
B. signalgrass plant response rating [13, 27]: 0
Sugarbeets plant response rating [14, 17]: 0
Sugarbeets plant response rating (0 to 10 scale) ([14]; Preemergence, Rate 125 g/ha): 0
Sugarbeets plant response rating [14, 18]: 0
Sugarbeets plant response rating [14, 19]: 0
Sugarbeets plant response rating [14, 20]: 0
Sugarbeets plant response rating [14, 21]: 0
Plant response rating, Sugarbeets [14, 22]: 0
Giant foxtail plant response rating [15, 17]: 2
Giant foxtail plant response rating (0 to 10 scale) ([15]; Preemergence, Rate 125 g/ha): 2
Giant foxtail plant response rating [15, 18]: 8
Giant foxtail plant response rating [15, 19]: 9
Giant foxtail plant response rating [15, 20]: 0
Giant foxtail plant response rating [15, 21]: 0
Plant response rating, Giant foxtail [15, 22]: 0
Rape plant response rating [16, 17]: 0
Rape plant response rating (0 to 10 scale) ([16]; Preemergence, Rate 125 g/ha): 0
Rape plant response rating [16, 18]: 0
Rape plant response rating [16, 19]: 0
Rape plant response rating [16, 20]: 0
Rape plant response rating [16, 21]: 0
Plant response rating, Rape [16, 22]: 0
